Reference: US20250171438A1 (Agios Pharmaceuticals, Inc., priority 2022, published 2025)

The compounds below were run against T1, human PAH with the R408W mutation (Homo sapiens, UniProt P00439, R408W) (assay: Cell Based Phenylalanine Flux Assay). Settings: A375 cells expressing human R408W PAH; 24 hrs compound incubation; 13C-Tyrosine by LC-MS; average where tested multiple times; read-out: AC50.
T1 construct: expressed in transfected cells
T1 sequence (P00439 1-452 R408W): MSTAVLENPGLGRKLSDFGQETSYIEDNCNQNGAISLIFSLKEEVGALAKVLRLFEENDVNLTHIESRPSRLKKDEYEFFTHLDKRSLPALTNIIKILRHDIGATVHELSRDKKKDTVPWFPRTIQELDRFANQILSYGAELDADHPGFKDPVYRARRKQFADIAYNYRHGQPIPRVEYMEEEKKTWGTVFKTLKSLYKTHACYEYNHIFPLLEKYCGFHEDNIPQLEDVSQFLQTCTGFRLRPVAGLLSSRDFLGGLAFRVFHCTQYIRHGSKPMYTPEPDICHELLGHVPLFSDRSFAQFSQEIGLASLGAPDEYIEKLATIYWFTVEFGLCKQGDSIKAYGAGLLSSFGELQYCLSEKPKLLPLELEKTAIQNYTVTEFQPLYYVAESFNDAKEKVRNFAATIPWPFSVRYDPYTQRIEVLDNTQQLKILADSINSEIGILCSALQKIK

`O=C([C@@H]1CC1(F)F)N1CCc2[nH]cnc2[C@H]1c1nc2c(F)cccc2s1` [Example 1645] and `O=C(CC1(O)CCC1)N1CCc2[nH]cnc2[C@H]1c1nc2c(F)cccc2s1` [Example 1647, (S)-1-(4-(4-fluorobenzo[d]thiazol-2-yl)-6,7-dihydro-1H-imidazo[4,5-c]pyridin-5(4H)-yl)-2-(1-hydroxycyclobutyl)ethanone] fall in the same range of AC50: 500 to 1000 nM for the first, 500 to 1000 nM for the second.

First: O=C(c1cn(-c2ccccn2)nc1Cl)N1CCc2[nH]cnc2[C@H]1c1nc2c(F)cccc2s1 [Example 1769]
Second: O=C(c1cnn(-c2ccccn2)c1Cl)N1CCc2[nH]cnc2[C@@H]1c1nc2c(F)cccc2s1 [Example 1766, (R)-(5-chloro-1-(pyridin-2-yl)-1H-pyrazol-4-yl)(4-(4-fluorobenzo[d]thiazol-2-yl)-6,7-dihydro-1H-imidazo[4,5-c]pyridin-5(4H)-yl)methanone]
The AC50 of the first is lower: 500 to 1000 nM for the first, 1000 to 5000 nM for the second.

First: O=C(CC1CC1)N1CCc2[nH]cnc2[C@H]1c1nc2ccc(Br)cc2s1 [Example 1148, (S)-1-(4-(6-bromobenzo[d]thiazol-2-yl)-6,7-dihydro-1H-imidazo[4,5-c]pyridin-5(4H)-yl)-2-cyclopropylethanone]
Second: O=C(CC1CC1)N1CCc2[nH]cnc2[C@@H]1c1nc2ccc(Br)cc2[nH]1 [Example 946, (R)-1-(4-(6-bromo-1H-benzo[d]imidazol-2-yl)-6,7-dihydro-1H-imidazo[4,5-c]pyridin-5(4H)-yl)-2-cyclopropylethanone]
The AC50 of the first is lower: under 500 nM for the first, 500 to 1000 nM for the second.

`CC(C)(C#N)c1nc(C(F)F)c(C(=O)N2CCc3[nH]cnc3[C@H]2c2nc3c(F)cccc3s2)o1` [Example 2027] and `CC(C)(F)c1ncc(C(=O)N2CCc3[nH]cnc3[C@H]2c2nc3c(F)cccc3s2)o1` [Example 1487, (S)-(4-(4-fluorobenzo[d]thiazol-2-yl)-6,7-dihydro-1H-imidazo[4,5-c]pyridin-5(4H)-yl)(2-(2-fluoropropan-2-yl)oxazol-5-yl)methanone] cannot be ordered by AC50: under 500 nM for the first, under 500 nM for the second.

`Cn1nccc1C(=O)N1CCc2[nH]cnc2[C@H]1c1nc2c(F)cccc2s1` [Example 1603] and `O=C(c1ccnn1C(F)F)N1CCc2[nH]cnc2[C@@H]1c1nc2c(F)cccc2s1` [Example 1740, (R)-(1-(difluoromethyl)-1H-pyrazol-5-yl)(4-(4-fluorobenzo[d]thiazol-2-yl)-6,7-dihydro-1H-imidazo[4,5-c]pyridin-5(4H)-yl)methanone] fall in the same range of AC50: 1000 to 5000 nM for the first, 1000 to 5000 nM for the second.

First: O=C(c1nc2c(F)cccc2s1)N1CCc2[nH]cnc2[C@@H]1c1nc2ccccc2s1 [Example 1091, (R)-(4-(benzo[d]thiazol-2-yl)-6,7-dihydro-1H-imidazo[4,5-c]pyridin-5(4H)-yl)(4-fluorobenzo[d]thiazol-2-yl)methanone]
Second: Cc1nc(-c2ccccn2)oc1C(=O)N1CCc2[nH]cnc2[C@H]1c1nc2c(F)cccc2s1 [Example 1445, (S)-(4-(4-fluorobenzo[d]thiazol-2-yl)-6,7-dihydro-1H-imidazo[4,5-c]pyridin-5(4H)-yl)(4-methyl-2-(pyridin-2-yl)oxazol-5-yl)methanone]
The AC50 of the first is higher: over 5000 nM for the first, under 500 nM for the second.

Compared with `O=C(c1ccnn1C1CC1)N1CCc2[nH]cnc2[C@@H]1c1nc2c(F)cccc2s1` [Example 1736, (R)-(1-cyclopropyl-1H-pyrazol-5-yl)(4-(4-fluorobenzo[d]thiazol-2-yl)-6,7-dihydro-1H-imidazo[4,5-c]pyridin-5(4H)-yl)methanone], `O=C(c1ccnn1C1CC1)N1CCc2[nH]cnc2[C@H]1c1nc2c(F)cccc2s1` [Example 1735] is lower in AC50: 1000 to 5000 nM for the first, under 500 nM for the second.

First: CN(C)CCc1nc(C(F)(F)F)c(C(=O)N2CCc3[nH]cnc3[C@H]2c2nc3ccccc3s2)o1 [Example 1581]
Second: CC1(C(=O)N2CCc3[nH]cnc3[C@H]2c2nc3ccccc3s2)CC1(F)F (single isomer, unassigned) [Example 1291]
The AC50 of the first is lower: under 500 nM for the first, 500 to 1000 nM for the second.

Going from `Cn1nc(Cl)cc1C(=O)N1CCc2[nH]cnc2[C@H]1c1nc2c(F)cccc2s1` [Example 1721] to `Nc1cc(C(=O)N2CCc3[nH]cnc3[C@@H]2c2nc3c(F)cccc3s2)n(C(F)F)n1` [Example 2054, (R)-(3-amino-1-(difluoromethyl)-1H-pyrazol-5-yl)(4-(4-fluorobenzo[d]thiazol-2-yl)-6,7-dihydro-1H-imidazo[4,5-c]pyridin-5(4H)-yl)methanone], the AC50 rises from under 500 nM to over 5000 nM.

Compared with `O=C(C1CC1)N1CCc2[nH]cnc2[C@@H]1c1nc2ccccc2s1` [Example 1074, (R)-(4-(benzo[d]thiazol-2-yl)-6,7-dihydro-1H-imidazo[4,5-c]pyridin-5(4H)-yl)(cyclopropyl)methanone], `O=C(c1scnc1C1CC1)N1CCc2[nH]cnc2[C@@H]1c1nc2ccccc2s1` [Example 1388, (R)-(4-(benzo[d]thiazol-2-yl)-6,7-dihydro-1H-imidazo[4,5-c]pyridin-5(4H)-yl)(4-cyclopropylthiazol-5-yl)methanone] is lower in AC50: over 5000 nM for the first, 1000 to 5000 nM for the second.

Compared with `CC(O)c1nc(Cl)c(C(=O)N2CCc3[nH]cnc3[C@H]2c2nc3c(F)cccc3s2)o1` (single isomer, unassigned) [Example 2080], `O=C(c1cnc(C2CC2)o1)N1CCc2[nH]cnc2[C@@H]1c1nc2c(F)cccc2s1` [Example 1330, (R)-(2-cyclopropyloxazol-5-yl)(4-(4-fluorobenzo[d]thiazol-2-yl)-6,7-dihydro-1H-imidazo[4,5-c]pyridin-5(4H)-yl)methanone] is higher in AC50: 500 to 1000 nM for the first, 1000 to 5000 nM for the second.

Compared with `O=C(c1nncs1)N1CCc2[nH]cnc2[C@H]1c1nc2ccc(Br)cc2[nH]1` [Example 977, (S)-(4-(6-bromo-1H-benzo[d]imidazol-2-yl)-6,7-dihydro-1H-imidazo[4,5-c]pyridin-5(4H)-yl)(1,3,4-thiadiazol-2-yl)methanone], `O=C(c1n[nH]c2ccccc12)N1CCc2[nH]cnc2[C@@H]1c1nc2ccccc2s1` [Example 1050, (R)-(4-(benzo[d]thiazol-2-yl)-6,7-dihydro-1H-imidazo[4,5-c]pyridin-5(4H)-yl)(1H-indazol-3-yl)methanone] is higher in AC50: 500 to 1000 nM for the first, over 5000 nM for the second.

First: O=C(CCc1nccs1)N1CCc2[nH]cnc2[C@@H]1c1ncc(-c2ccccc2)s1 [Example 2142, (R)-1-(4-(5-phenylthiazol-2-yl)-6,7-dihydro-1H-imidazo[4,5-c]pyridin-5(4H)-yl)-3-(thiazol-2-yl)propan-1-one]
Second: O=C(c1cn(-c2ccccn2)nc1Cl)N1CCc2[nH]cnc2[C@H]1c1nc2ccccc2s1 [Example 1907]
The AC50 of the first is higher: over 5000 nM for the first, 500 to 1000 nM for the second.

Going from `O=C(c1cn(CC(F)(F)F)nc1C(F)F)N1CCc2[nH]cnc2[C@H]1c1nc2c(F)cccc2s1` [Example 1987] to `O=C(c1cnn2ccc(Cl)cc12)N1CCc2[nH]cnc2[C@@H]1c1nc2ccc(F)cc2s1` [Example 1152, (R)-(5-chloropyrazolo[1,5-a]pyridin-3-yl)(4-(6-fluorobenzo[d]thiazol-2-yl)-6,7-dihydro-1H-imidazo[4,5-c]pyridin-5(4H)-yl)methanone], the AC50 rises from under 500 nM to over 5000 nM.

Same assay, conditions: A375 cells expressing human R408W PAH; 24 hrs with compound; 13C-Tyrosine by LC-MS; average where tested multiple times; read-out: AC50

`Cc1nnc(CCC(=O)N2CCc3[nH]cnc3C2c2nc3ccc(Br)cc3[nH]2)s1` (stereo not drawn) and `Cc1nnc(CC(=O)N2CCc3[nH]cnc3C2c2nc3ccc(F)cc3s2)s1` (stereo not drawn) cannot be ordered by AC50: over 5000 nM for the first, over 5000 nM for the second.

First: CC(C)(O)c1noc(C(=O)N2CCc3[nH]cnc3C2c2nc3c(F)cccc3s2)n1 (stereo not drawn)
Second: CNC(C)(C)c1nc(C)c(C(=O)N2CCc3[nH]cnc3C2c2nc3c(F)cccc3s2)o1 (stereo not drawn)
The AC50 of the first is lower: 1000 to 5000 nM for the first, over 5000 nM for the second.

`O=C(c1ncn2ccccc12)N1CCc2[nH]cnc2C1c1nc2ccc(Br)cc2[nH]1` (stereo not drawn) and `O=C(c1cnn2ccc(Cl)cc12)N1CCc2[nH]cnc2C1c1nc2ccc(Cl)cc2[nH]1` (stereo not drawn) cannot be ordered by AC50: over 5000 nM for the first, over 5000 nM for the second.

First: CC1CN(C(=O)c2nnc(C(C)(C)O)o2)C(c2nc3ccccc3s2)c2nc[nH]c21 (stereo not drawn)
Second: O=C(c1nnc(CCCN2CC(F)C2)o1)N1CCc2[nH]cnc2C1c1nc2ccccc2s1 (stereo not drawn)
The AC50 of the first is higher: over 5000 nM for the first, 1000 to 5000 nM for the second.

First: O=C(CCc1nccs1)N1CCc2[nH]cnc2C1c1nc2c(Br)cccc2s1 (stereo not drawn)
Second: Cc1nnc(CCC(=O)N2CCc3[nH]cnc3C2c2nc3ccccc3s2)o1 (stereo not drawn)
The AC50 of the first is lower: 1000 to 5000 nM for the first, over 5000 nM for the second.

Compared with `CS(=O)(=O)N1CC(C(=O)N2CCc3[nH]cnc3C2c2nc3ccccc3s2)C1` (stereo not drawn), `c1ccc2sc(C3c4nc[nH]c4CCN3CC3CC3)nc2c1` (stereo not drawn) is higher in AC50: 1000 to 5000 nM for the first, over 5000 nM for the second.

First: O=C(c1cn[nH]c1)N1CCc2nc[nH]c2C1c1nc2c(F)cccc2s1 (stereo not drawn)
Second: COCc1ncc(C(=O)N2CCc3[nH]cnc3C2c2nc3c(F)cccc3s2)o1 (stereo not drawn)
The AC50 of the first is higher: over 5000 nM for the first, 1000 to 5000 nM for the second.

`O=C(c1cnn2cc(Cc3ccccc3)ccc12)N1CCc2[nH]cnc2C1c1nc2ccccc2s1` (stereo not drawn) and `Cc1ccc2c(C(=O)N3CCc4[nH]cnc4C3c3nc4ccc(F)cc4s3)cnn2c1` (stereo not drawn) fall in the same range of AC50: 1000 to 5000 nM for the first, 1000 to 5000 nM for the second.

Compared with `Cc1nnc(N2CCc3[nH]cnc3[C@H]2c2nc3ccccc3[nH]2)o1` (single isomer, unassigned), `O=C(c1ncc[nH]1)N1CCc2[nH]cnc2C1c1nc2ccccc2[nH]1` (stereo not drawn) is higher in AC50: 1000 to 5000 nM for the first, over 5000 nM for the second.

`COCCc1ncc(C(=O)N2CCc3[nH]cnc3C2c2nc3ccccc3s2)o1` (stereo not drawn) and `O=C(CCCc1nc2ccccc2s1)N1CCc2[nH]cnc2[C@H]1c1nc2ccccc2[nH]1` [(S)-1-(4-(1H-benzo[d]imidazol-2-yl)-1,4,6,7-tetrahydro-5H-imidazo[4,5-c]pyridin-5-yl)-4-(benzo[d]thiazol-2-yl)butan-1-one] fall in the same range of AC50: 1000 to 5000 nM for the first, 1000 to 5000 nM for the second.
